This note sets out measurements from US4570005A, “Process for the preparation of 2-arylpropyl ether or thioether derivatives” (priority 1980, dated 1986).

Each structure is given as a SMILES string. Where two headings read alike, the source gives them in different places. Where only a bound is given, the exact number is not on record here.

One series deals with green peach aphid. Put plainly: Test 5: Effect on Green Peach Aphid. The format is in vivo. The note with it: Myzus persicae, read-out: Insecticidal Activity. The method, then:
(§1) To a mixture of 20 parts of the compound of the present invention and 20 parts of Sorpol SM-200 (registered tradename for the product supplied by Toho Chemical Industrial Co., Ltd.) was added 60 parts of xylol, and the mixture was suffciently blended. The obtained emulsifiable concentrate was diluted at a predetermined concentration with distilled water, and the obtained dilution was used.
Seedlings (having 3 to 4 leaves) of an eggplant grown on a pot were inoculated with green peach aphids and the insects were allowed to grow. The number of the insects was counted. A chemical dilution having a concentration of 100 ppm, prepared in the same manner as described in Test 1, was applied with a spray gun at a rate of 10 ml per pot. Then, the pot was placed in a glass green house. After 24 hours, the number of living insects was counted and the mortality was calculated.
The test was made on three pots, and the average value was calculated. In Table 6, mark "A" indicates a mortality higher than 95%, mark "B" indicates a mortality of 80 to 95%, mark "C" indicates a mortality of 50 to 80%, and mark "D" indicates a mortality lower than 50%.

The test system of series [1] is tobacco cutworm. Put plainly: Test 2: Tobacco Cutworm Larva Dipping Test, mortality after 24 hours. Type of series: in vivo. The conditions noted are these: 24 hours. As to the method:
as §1
A dilution having a chemical concentration of 100 or 20 ppm was prepared in the same manner as described in Test 1.
Second-instar and fifth-instar larvae of tobacco cutworm were dipped in the dilution for 5 seconds, and the excessive dilution was removed by a filter paper. Then, the larvae were set free in a plastic cup and an artificial diet was supplied thereto. The cup was allowed to stand still in a thermostat chamber maintained at 25° C. After 24 hours, the numbers of the killed and living larvae were counted and the mortality was calculated. The test was made on three cups and the result was expressed by an average value.

The test system of series [2] is sensitive green rice leafhopper (collected at Chigasaki). Put plainly: whole plant or invertebrate. Type of series: in vivo. The note with it: Nephotettix cincticeps, sensitive female adults, 24 hours, read-out: Mortality (%), Green Rice Leafhopper Collected at Chigasaki. In outline: (§2)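 Emulsifiable concentrate diluted to 100 or 20 ppm was sprayed, 3 ml per pot, onto hydroponic rice seedlings at 2–3 leaves. After air-drying, 10 female adults of the Nakagawara (resistant) or Chigasaki (sensitive) strain were released per caged pot. Mortality was counted at 24 h and averaged over three pots.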

Series [3] deals with resistant green rice leafhopper (collected at Nakagawara). Put plainly: Test 3: Effect on Resistant Green Rice Leafhopper (collected at Nakagawara). The conditions noted are these: Nephotettix cincticeps, 24 h, read-out: Mortality (%), Green Rice Leafhopper Collected at Nakagawara. Type of series: in vivo, Nephotettix cincticeps Uhler (Green rice leafhopper). In short, it runs like this: as §2

Series [4] can be described thus: Test 9: Toxicity Test (acute oral toxicity, mice). The conditions noted are these: mouse, in vivo, po. As to the method:
A predetermined amount of a solution or suspension of a test compound in corn oil was orally administered to male mice having a body weight of 19 to 23 g (0.2 ml per 10 g of the body weight). After 7 days, the number of killed mice was counted and the influences on the mice were examined.

Series [5] deals with tobacco cutworm. Put plainly: Test 1: Effect on Tobacco Cutworm (leaf immersion), mortality after 24 hours. Type of series: in vivo. The note with it: second-instar larvae, 25° C. In short, it runs like this: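 Sweet-potato leaves dipped 10 s in emulsifiable concentrate diluted to 100 or 20 ppm, air-dried, then exposed to second-instar larvae at 25 °C. Mortality counted after 24 h, averaged over three cups.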

The subject of a further series is diamond back moth. Put plainly: Test 4: Effect on Diamond Back Moth. Type of series: in vivo. The note with it: Plutella, third-instar larvae, 24 hours, read-out: Mortality (%). In outline:
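Compound formulated as an emulsifiable concentrate, diluted in water to 100 or 20 ppm and sprayed at 3 ml per cup onto cabbage leaves holding 10 third-instar larvae. Mortality counted after 24 hours; mean of three cups.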

A further series relates to German cockroach. Put plainly: Test 7: Effect on German Cockroach. The note with it: Blattella germanica, male adults, agonized and killed after 24 hours, read-out: Mortality (%); for mortality at 10 mg/m2: 10 mg/m^2; for mortality at 50 mg/m2: 50 mg/m^2. Type of series: in vivo. As to the method: as §1
The bottom face of a high Petri dish having a diameter of 9 cm and a height of 9 cm was treated with 50 or 10 mg/m^2 of a test compound and the dish was air-dried. In order to prevent the adults from escaping from the dish, the inner wall of the dish was treated with butter. Then, 10 male adults of German cockroach were set free in each dish, and the dish was placed in a thermostat chamber maintained at 25° C. After 24 hours, the number of agonized and killed adults was counted. The test was made on two dishes and the average value was calculated.

Another series in a line: Test 8: Fish Toxicity. Type of series: in vivo. The note with it: carp, water; concentration at which 1/2 of the test fishes were killed within 48 hours; read-out: Fish Toxicity, TLm48. The method, then:
A water tank having a width of 60 cm, a length of 30 cm and a height of 40 cm was filled with water, and 10 yearling carps having a body length of about 5 cm were set free in the tank and adapted to the environment in the tank. A test compound was applied so that the concentration in water was 10, 1 or 0.1 ppm. After 48 hours, the numbers of killed and living carps were counted and the influences on the fishes were examined.

Setting [6] is: fifth-instar larvae, read-out: Motality (%), Fifth-Instar Larvae.
Setting [7] is: second-instar larvae, read-out: Motality (%), Second-Instar Larvae.
The mark [8] stands for this setting: 100 ppm, mortality class, 24 hours.

As to `COP(=O)(NC(C)=O)SC` (centres unmarked) [Comparative Compound (h), O,S-dimethyl N-acetylphosphoroamidothiolate, reference compound], in the series on green peach aphid (24 h), the mortality at 100 ppm lay in the range of 80 to 95%.

As for `Cc1ccc(C(C)(C)COCc2cccc(Oc3ccc(F)cc3)c2)cc1` [Compound 3, 3-(4-Fluorophenoxy)benzyl 2-(4-methylphenyl)-2-methylpropyl ether], the mortality at 20 ppm was determined as 60% with tobacco cutworm [1] (setting [6]); 70% in the series with tobacco cutworm [1] (setting [7]); 100% in series [2]; 100% in series [3]; 83% in the series with tobacco cutworm [5]. Further, the mortality at 100 ppm was 70% in the series with tobacco cutworm [1] (setting [6]); 90% in the series with tobacco cutworm [1] (setting [7]); more than 95% with green peach aphid (setting [8]); 100% in series [2]; 100% in series [3]; 100% with tobacco cutworm [5]. In addition, the LD50 (in general, the dose expected to kill half of the subjects tested) at 168 h in series [4] was more than 500 mg/kg.

For `CC(C)(CSCc1cccc(Oc2ccc(F)cc2)c1)c1ccc(Cl)cc1` [Compound 9], the mortality at 100 ppm in the series on green peach aphid (setting [8]) is more than 95%; with diamond back moth it was 100%; in series [2], 100%; in series [3] it was 100%; in the series with tobacco cutworm [5], 100%. The mortality at 20 ppm was 95% with diamond back moth, 70% in series [2], 90% in [3] and 90% in the series on tobacco cutworm [5]. Besides, the mortality at 10 mg/m2 in the series with German cockroach came to 100%. Also, the mortality at 50 mg/m2 with German cockroach turned out to be 100%. The 50% lethal dose (LD50) at 168 h in series [4] is more than 500 mg/kg.

Turning to `CC(C)(COCc1cccc(C(=O)c2ccccc2)c1)c1ccc(Cl)cc1` [Compound 22, 3-Benzoylbenzyl 2-(4-chlorophenyl)-2-methylpropyl ether], in series [2], the mortality at 20 ppm was found to be 50% and the mortality at 100 ppm turned out to be 100%. Moreover, in the series with German cockroach, the mortality at 10 mg/m2 turned out to be 90% and the mortality at 50 mg/m2 is 100%. For the same compound, in series [3], the mortality at 20 ppm is 80% and the mortality at 100 ppm is 100%. In [4], this compound came in with an LD50 at 168 h of more than 500 mg/kg. Further, the LC50 at 48 h in “Test 8: Fish Toxicity” is more than 10 µg/mL.

With `CC(C)(COCc1cccc(Oc2ccccc2)c1)c1ccc2ccccc2c1` [Compound 31, 3-Phenoxybenzyl 2-(2-naphthyl)-2-methylpropyl ether], in series [2], the mortality at 20 ppm stood at 100% and the mortality at 100 ppm turned out to be 100%. Moreover, in the series on German cockroach, the mortality at 10 mg/m2 was 100% and the mortality at 50 mg/m2 stood at 100%. Moreover, in [3], the mortality at 20 ppm amounted to 100% and the mortality at 100 ppm was 100%. For the same compound, the median lethal dose (LD50) at 168 h in [4] is more than 500 mg/kg. Also, the LC50 at 48 h in “Test 8: Fish Toxicity” was more than 10 µg/mL.

Regarding `CC(C)(COCc1cccc(Oc2ccccc2)c1)c1cccc(C(F)(F)F)c1` [Compound 39, 3-Phenoxybenzyl 2-(3-trifluoromethylphenyl)-2-methylpropyl ether], the mortality at 100 ppm in the series on green peach aphid (setting [8]) was more than 95%; in series [2], 100%; in series [3] it was 100%; in the series on tobacco cutworm [5] it was 100%. The mortality at 20 ppm in [2] came out at 100%; in series [3], 100%; with tobacco cutworm [5], 90%. Besides, the mortality at 10 mg/m2 in the series with German cockroach stood at 90%. For the same compound, the mortality at 50 mg/m2 with German cockroach turned out to be 100%. In addition, the LD50 at 168 h in series [4] was more than 500 mg/kg.

For the compound `CCOc1ccc(C(C)(C)COCc2cccc(Oc3ccccc3)c2)cc1Cl` [Compound 78, 3-Phenoxybenzyl 2-(3-chloro-4-ethoxyphenyl)-2-methylpropyl ether], the mortality at 100 ppm was more than 95% in the series with green peach aphid (setting [8]); 100% in the series on diamond back moth; 100% in series [2]; 100% in series [3]; 100% with tobacco cutworm [5]. For the same compound, the mortality at 20 ppm (in the series on diamond back moth; in series [2]; in series [3]; in the series with tobacco cutworm [5]) was 100% each time. Also, the median lethal dose (LD50) at 168 h in [4] is more than 500 mg/kg.

Regarding `COC(C)c1ccc(C(C)(C)COCc2cccc(Oc3ccccc3)c2)cc1` (centres unmarked) [Compound 86, 3-Phenoxybenzyl 2[4-(1-methoxyethyl)phenyl]-2-methylpropyl ether], the mortality at 100 ppm in the series with green peach aphid (setting [8]) lay in the range of 80 to 95%. The same compound came in with an LD50 at 168 h in series [4] of more than 500 mg/kg.

In the case of `CCOc1ccc(C(C)(C)COCc2cccc(Oc3ccccc3)c2)cc1OCC` [Compound 93, 3-Phenoxybenzyl 2-(3,4-diethoxyphenyl)-2-methylpropyl ether], the mortality at 100 ppm was more than 95% in the series on green peach aphid (setting [8]), 100% in [2], 100% in series [3] and 100% in the series on tobacco cutworm [5]. For the same compound, the figures for the mortality at 20 ppm (in series [2]; in series [3]; in the series on tobacco cutworm [5]) were 75%, 100% and 100%, respectively. For the same compound, the mortality at 10 mg/m2 in the series with German cockroach worked out at 100%. Further, the mortality at 50 mg/m2 in the series with German cockroach amounted to 100%. In [4], this compound gave a 50% lethal dose (LD50) at 168 h of more than 500 mg/kg.

For `CCOc1ccc(C(C)(C)CSCc2cccc(Oc3ccccc3)c2)cc1` [Compound 95], the mortality at 100 ppm in the series on green peach aphid (setting [8]) was more than 95%; in [2] it was 100%; in series [3], 100%; with tobacco cutworm [5], 100%. Further, the mortality at 20 ppm (in series [2]; in series [3]; with tobacco cutworm [5]) was 100% each time. In series [4], the LD50 at 168 h was more than 500 mg/kg.

Turning to `C#Cc1ccc(C(C)(C)COCc2cccc(Oc3ccccc3)c2)cc1` [Compound 96, 3-Phenoxybenzyl 2-(4-ethynylphenyl)-2-methylpropyl ether], the results for the mortality at 100 ppm (in the series on green peach aphid (setting [8]); in series [2]; in series [3]) were 80 to 95%, 100% and 100%, respectively. The mortality at 20 ppm turned out to be 60% in [2] and 90% in [3]. Besides, in series [4], the 50% lethal dose (LD50) at 168 h was more than 500 mg/kg.

Turning to `CCOc1ccc(C(C)(CC)COCc2cccc(Oc3ccccc3)c2)cc1` (centres unmarked) [Compound 103, 3-Phenoxybenzyl 2-(4-ethoxyphenyl)-2-ethylpropyl ether], the mortality at 100 ppm with green peach aphid (setting [8]) was more than 95%; in [2], 100%; in [3], 100%; in the series on tobacco cutworm [5], 100%. The mortality at 20 ppm (in series [2]; in series [3]; in the series with tobacco cutworm [5]) was 100% throughout. Besides, in series [4], the LD50 at 168 h is more than 500 mg/kg.
